Data on 20 compounds can be found in PMC4963206 (ChemMedChem, 2016).

The term IC50 denotes the concentration at which inhibition is half-maximal.

One experiment deals with AR230 cells. The experiment in a line: Phenotypic screening / cytotoxicity in CML cell line AR230. The experiment is classed as cell-based. To be noted: read-out: IC50 AR230.
In a further experiment the test system is AR230^R cells. The experiment in a line: Phenotypic screening / cytotoxicity in TKI-resistant CML cell line AR230^R. The experiment is classed as cell-based. To be noted: for IC50: read-out: IC50 AR230^R; for Fold Difference: Table 3, AR230 vs AR230^R.

Where two headings read alike, the source gives them in different places.

Turning to `CC(C)(C)c1ccc(CN(C(=O)CN(C2CC2)S(=O)(=O)c2ccc(F)cc2)c2ccc(C(=O)O)cc2)cc1` [AES1-094, 4-(N-(4-(tert-butyl)benzyl)-2-((N-cyclopropyl-4-fluorophenyl)sulfonamido)acetamido)benzoic acid], the figures for the IC50 in the experiment on AR230 cells (Table 4) and with AR230^R cells (Table 4) were above 32 µM and 10.6 µM, respectively.
With `O=C(O)c1ccc(N(Cc2ccc(C3CCCC3)cc2)C(=O)CN(C2CC2)S(=O)(=O)c2c(F)c(F)c(Cl)c(F)c2F)cc1` [AM1-112, 4-(N-(4-Cyclopentylbenzyl)-2-((N-cyclopropyl-2,3,5,6-tetrafluoro-4-chlorophenyl)sulfonamido)acetamido)benzoic acid], the IC50 was above 32 µM with AR230 cells (Table 4) and 30.7 µM in the experiment with AR230^R cells (Table 4).
`CC(C)(C)c1ccc(CN(C(=O)CN(C2CC2)S(=O)(=O)c2c(F)c(F)c(F)c(F)c2F)c2ccc(C(=O)O)cc2)cc1` [DR-3-162, 4-(N-(4-(tert-butyl)benzyl)-2-((N-cyclopropyl-2,3,4,5,6-pentafluorophenyl)sulfonamido)acetamido)benzoic acid]: the half-inhibitory concentration (IC50) worked out at 3.2 µM in the experiment on AR230 cells (Table 3) and 0.8 µM in the experiment on AR230^R cells (Table 3). For the same compound, the “fold selectivity for AR230^R over AR230 cells” value in the experiment with AR230^R cells is recorded as 4 fold. The compound further registered a fold more potent with AR230^R cells (AR230^R cells) of 3 fold. Also, the “Fold Difference” value in the experiment with AR230^R cells came out at 4.
Regarding `O=C(O)c1ccc(N(Cc2ccc(C3CCCC3)cc2)C(=O)CN(C2CC2)S(=O)(=O)c2cccnc2)cc1` [RG1-066, 4-(N-(4-Cyclopentylbenzyl)-2-(N-cyclopropylpyridine-3-sulfonamido)acetamido)benzoic acid], the half-maximal inhibitory concentration (IC50) in the experiment on AR230 cells and with AR230^R cells was above 32 µM throughout.
Take `O=C(O)c1ccc(N(Cc2ccc(C3CCCC3)cc2)C(=O)CN(C2CC2)S(=O)(=O)c2c(F)c(F)c(F)c(F)c2F)cc1` [DR-3-093, 4-(N-(4-Cyclopentylbenzyl)-2-((N-cyclopropyl-2,3,4,5,6-pentafluorophenyl)sulfonamido)acetamido)benzoic acid]: the IC50 in the experiment with AR230 cells (Table 3) stood at 3.3 µM; in the experiment on AR230^R cells (Table 3), 1.2 µM. In the experiment with AR230^R cells, the “Fold Difference” value amounted to 2.75.
For `O=C(O)c1ccc(N(Cc2ccc(C3CCC3)cc2)C(=O)CN(C2CC2)S(=O)(=O)c2c(F)c(F)c(F)c(F)c2F)cc1` [DR-4-020, 4-(N-(4-Cyclobutylbenzyl)-2-((N-cyclopropyl-2,3,4,5,6-pentafluorophenyl)sulfonamido)acetamido)benzoic acid], the IC50 in the experiment on AR230 cells (Table 3) was determined as 8.6 µM; in the experiment on AR230^R cells (Table 3) it was 4.2 µM. In addition, the “Fold Difference” value in the experiment on AR230^R cells was 2.05.
With `O=C(O)c1ccc(N(Cc2ccc(C3CCCC3)cc2)C(=O)CN(C2CC2)S(=O)(=O)c2ccc(F)cn2)cc1` [AM1-117, 4-(N-(4-Cyclopentylbenzyl)-2-((N-cyclopropyl-5-fluoropyridine)-2-sulfonamido)acetamido)benzoic acid], the IC50 in the experiment with AR230 cells (Table 4) and in the experiment on AR230^R cells (Table 4) was above 32 µM each time.
Turning to `O=C(O)c1ccc(N(Cc2ccc(C3CCOCC3)cc2)C(=O)CN(C2CC2)S(=O)(=O)c2c(F)c(F)c(F)c(F)c2F)cc1` [DR-4-042], the IC50 stood at 4.7 µM with AR230 cells (Table 3) and 4.2 µM in the experiment with AR230^R cells (Table 3). In addition, in the experiment with AR230^R cells, the “Fold Difference” value was found to be 1.12.
For the compound `CC1(C)CCC(c2ccc(CN(C(=O)CN(C3CC3)S(=O)(=O)c3c(F)c(F)c(F)c(F)c3F)c3ccc(C(=O)O)cc3)cc2)CC1` [DR-3-119, 4-(2-((N-Cyclopropyl-2,3,4,5,6-pentafluorophenyl)sulfonamido)-N-(4-(4,4-dimethylcyclohexyl)benzyl)acetamido)benzoic acid], the IC50 is 5.8 µM in the experiment with AR230 cells (Table 3) and 3.2 µM in the experiment on AR230^R cells (Table 3). Moreover, in the experiment on AR230^R cells, the “Fold Difference” value is given as 1.81.
In the case of `O=C(O)c1ccc(N(Cc2ccc(C3CCCCC3)cc2)C(=O)CN(C2CC2)S(=O)(=O)c2c(F)c(F)c(F)c(F)c2F)cc1` [DR-3-036], the values for the half-inhibitory concentration (IC50) with AR230 cells (Table 2) and in the experiment with AR230^R cells (Table 2) were 4.3 µM and 2.6 µM, respectively.
With `O=C(O)c1ccc(N(Cc2ccc(Cl)cc2)C(=O)CN(C2CC2)S(=O)(=O)c2c(F)c(F)c(F)c(F)c2F)cc1` [DR-4-003, 4-(N-(4-Chlorobenzyl)-2-((N-cyclopropyl-2,3,4,5,6-pentafluorophenyl)sulfonamido)acetamido)benzoic acid], the IC50 in the experiment on AR230 cells (Table 3) stood at 4.1 µM; in the experiment with AR230^R cells (Table 3) it was 1.7 µM. In addition, the “Fold Difference” value with AR230^R cells amounted to 2.41.
For the compound `O=C(O)c1ccc(N(Cc2ccc(C3CCCC3)cc2)C(=O)CN(C2CC2)S(=O)(=O)c2c(F)c(F)c(C(F)(F)F)c(F)c2F)cc1` [AM1-066, 4-(N-(4-Cyclopentylbenzyl)-2-((N-cyclopropyl-2,3,5,6-tetrafluoro-4-(trifluoromethyl)phenyl)sulfonamido)acetamido)benzoic acid], the IC50 with AR230 cells (Table 4) came out at 20.4 µM; in the experiment with AR230^R cells (Table 4), 21.6 µM.
`O=C(O)c1ccc(N(Cc2ccc(C(F)(F)F)cc2)C(=O)CN(C2CC2)S(=O)(=O)c2c(F)c(F)c(F)c(F)c2F)cc1` [DR-3-186, 4-(2-(N-cyclopropyl-2,3,4,5,6-pentafluorophenylsulfonamido)-N-(4-(trifluoromethyl)benzyl)acetamido)benzoic acid]: the IC50 with AR230 cells was 1.4 µM. Besides, in the experiment on AR230^R cells, the “fold selectivity for AR230^R over AR230 cells” value was below 2 fold, the “Fold Difference” value came to 1.94 and the IC50 was determined as 0.72 µM.
With `O=C(O)c1ccc(N(Cc2ccc(F)cc2)C(=O)CN(C2CC2)S(=O)(=O)c2c(F)c(F)c(F)c(F)c2F)cc1` [PSL-3-122], the figures for the IC50 with AR230 cells (Table 3) and in the experiment on AR230^R cells (Table 3) were 6.1 µM and 3 µM, respectively. Moreover, the “Fold Difference” value in the experiment with AR230^R cells turned out to be 2.03.
`O=C(O)c1ccc(N(Cc2ccc(N3CCOCC3)cc2)C(=O)CN(C2CC2)S(=O)(=O)c2c(F)c(F)c(F)c(F)c2F)cc1` [PSL-3-089]: the IC50 came to 7.4 µM in the experiment with AR230 cells (Table 3) and 5.2 µM in the experiment on AR230^R cells (Table 3). In the experiment with AR230^R cells, the “Fold Difference” value is listed as 1.42.
Regarding `O=C(O)c1ccc(N(Cc2ccc(C3CCCCCC3)cc2)C(=O)CN(C2CC2)S(=O)(=O)c2c(F)c(F)c(F)c(F)c2F)cc1` [DR-3-165, 4-(N-(4-Cycloheptylbenzyl)-2-((N-cyclopropyl-2,3,4,5,6-pentafluorophenyl)sulfonamido)acetamido)benzoic acid], the IC50 in the experiment on AR230 cells (Table 3) was found to be 2.7 µM; in the experiment on AR230^R cells (Table 3), 1.1 µM. In addition, the “Fold Difference” value in the experiment with AR230^R cells is recorded as 2.45.
Take `O=C(O)c1ccc(N(Cc2ccc(C3CCCC3)cc2)C(=O)CN(C2CC2)S(=O)(=O)c2c(F)c(F)c(Br)c(F)c2F)cc1` [AM1-077, 4-(N-(4-Cyclopentylbenzyl)-2-((N-cyclopropyl-2,3,5,6-tetrafluoro-4-bromophenyl)sulfonamido)acetamido)benzoic acid]: the IC50 in the experiment on AR230 cells (Table 4) was 25.1 µM; in the experiment with AR230^R cells (Table 4), 20.3 µM.
In the same order, the values of `Cc1c(F)c(F)c(S(=O)(=O)N(CC(=O)N(Cc2ccc(C3CCCC3)cc2)c2ccc(C(=O)O)cc2)C2CC2)c(F)c1F` [AM1-030, 4-(N-(4-Cyclopentylbenzyl)-2-((N-cyclopropyl-2,3,5,6-tetrafluoro-4-methylphenyl)sulfonamido)acetamido)benzoic acid] are above 32 µM and 18.6 µM.
As for `CC(C)N(CC(=O)N(Cc1ccc(C2CCCCC2)cc1)c1ccc(C(=O)O)cc1)S(=O)(=O)c1c(F)c(F)c(F)c(F)c1F` [PSL-3-40, 4-(N-(4-cyclohexylbenzyl)-2-(2,3,4,5,6-pentafluoro-N-isopropylphenylsulfonamido)acetamido)benzoic acid], the 50% inhibitory concentration (IC50) stood at 8.7 µM in the experiment with AR230 cells and 14.2 µM in the experiment with AR230^R cells.
In the case of `O=C(O)c1ccc(N(Cc2ccccc2)C(=O)CN(C2CC2)S(=O)(=O)c2c(F)c(F)c(F)c(F)c2F)cc1` [PSL-3-115], the IC50 with AR230 cells (Table 3) amounted to 5.2 µM; in the experiment on AR230^R cells (Table 3) it was 2.3 µM. Further, the “Fold Difference” value with AR230^R cells was 2.26.
